According to the supplement of paper PMC10307832:

Assays:
Test in all cases: relative viability (nuclei count vs DMSO), 5 days (fraction); higher = more cells survive
[1] = compound: Cc1ccc(F)c(NC(=O)Nc2ccc(-c3cccc4[nH]nc(N)c34)cc2)c1 [Linifanib] + CS(=O)(=O)N1CCN(Cc2cc3nc(-c4cccc5[nH]ncc45)nc(N4CCOCC4)c3s2)CC1 [Pictilisib] (partner 1 µM)
Procedure, shortened: (§1)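 Medians of duplicate plates are given as relative viability. That measure is the nuclei count in treated wells divided by the count in vehicle wells. Counts were taken on 4× images of lung cancer cell lines in 1536-well plates, 5 days after pin-tool dosing the day after seeding with one drug alone or a fixed anchor-drug dose plus five library-drug doses (not always all listed) in √10 steps.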

[2] = compound: Cc1ccc(F)c(NC(=O)Nc2ccc(-c3cccc4[nH]nc(N)c34)cc2)c1 [Linifanib] + Cc1nc(NC(=O)N2CCC[C@H]2C(N)=O)sc1-c1ccnc(C(C)(C)C(F)(F)F)c1 [Alpelisib] (partner 2 µM)
Procedure, shortened: as §1

[3] = compound: Cc1ccc(F)c(NC(=O)Nc2ccc(-c3cccc4[nH]nc(N)c34)cc2)c1 [Linifanib] + N=C(N)NC(=N)NCCc1ccccc1 [Phenformin] (partner 250 µM)
Procedure, shortened: as §1

[4] = compound: Cc1ccc(F)c(NC(=O)Nc2ccc(-c3cccc4[nH]nc(N)c34)cc2)c1 [Linifanib] + CS(=O)(=O)CCNCc1ccc(-c2ccc3ncnc(Nc4ccc(OCc5cccc(F)c5)c(Cl)c4)c3c2)o1 [Lapatinib] (partner 2 µM)
Procedure, shortened: as §1

[5] = compound: Cc1ccc(F)c(NC(=O)Nc2ccc(-c3cccc4[nH]nc(N)c34)cc2)c1 [Linifanib] + CC(=O)c1c(C)c2cnc(Nc3ccc(N4CCNCC4)cn3)nc2n(C2CCCC2)c1=O [Palbociclib] (partner 0.5 µM)
Procedure, shortened: as §1

[6] = compound: Cc1ccc(F)c(NC(=O)Nc2ccc(-c3cccc4[nH]nc(N)c34)cc2)c1 [Linifanib] + O=C(CCCCCCC(=O)Nc1ccccc1)NO [Vorinostat] (partner 1 µM)
Procedure, shortened: as §1

Cell Line | relative viability ([1]; first compound 0.03162 µM) | relative viability ([1]; first compound 0.1 µM) | relative viability ([1]; first compound 0.3162 µM) | relative viability ([2]; first compound 0.03162 µM) | relative viability ([2]; first compound 0.1 µM) | relative viability ([2]; first compound 0.3162 µM) | relative viability ([3]; first compound 0.03162 µM) | relative viability ([3]; first compound 0.1 µM) | relative viability ([3]; first compound 0.3162 µM) | relative viability ([4]; first compound 0.03162 µM) | relative viability ([4]; first compound 0.1 µM) | relative viability ([4]; first compound 0.3162 µM) | relative viability ([5]; first compound 0.03162 µM) | relative viability ([5]; first compound 0.1 µM) | relative viability ([5]; first compound 0.3162 µM) | relative viability ([6]; first compound 0.03162 µM) | relative viability ([6]; first compound 0.1 µM) | relative viability ([6]; first compound 0.3162 µM)
LC-2-ad | 0.379 | 0.57 | 0.437 | 0.749 | 0.912 | 0.752 | 0.645 | 0.609 | 0.505 | 1.06 | 1.04 | 0.883 | 0.499 | 0.471 | 0.421 | 0.83 | 0.7 | 0.73
BEN | 0.516 | 0.606 | 0.581 | 0.963 | 1.11 | 0.992 | 0.252 | 0.245 | 0.243 | 0.6 | 0.767 | 0.713 | 0.471 | 0.521 | 0.438 | 0.622 | 0.558 | 0.667
NCI-H1944 | 0.368 | 0.378 | 0.341 | 0.846 | 0.848 | 0.695 | 0.212 | 0.205 | 0.2 | 0.943 | 0.881 | 0.645 | 0.334 | 0.353 | 0.35 | 0.73 | 0.599 | 0.657
HCC-827 | 0.898 | 0.96 | 0.933 | 0.986 | 1.06 | 0.922 | 0.432 | 0.453 | 0.382 | 0.19 | 0.173 | 0.191 | 0.491 | 0.544 | 0.46 | 0.792 | 0.814 | 0.802
HCC-44 | 0.605 | 0.674 | 0.595 | 0.82 | 0.824 | 0.793 | 0.29 | 0.195 | 0.248 | 1.04 | 1 | 0.989 | 0.996 | 0.955 | 1.01 | 1.22 | 1.04 | 1.14
ChaGo-K-1 | 0.697 | 0.783 | 0.741 | – | – | – | 0.488 | 0.581 | 0.478 | – | – | – | 0.984 | 0.881 | 0.916 | 0.767 | 0.807 | 0.775
NCI-H647 | 0.313 | 0.512 | 0.417 | 1.07 | 1.21 | 0.963 | 0.654 | 0.441 | 0.522 | 1.22 | 1.29 | 1.01 | 0.342 | 0.506 | 0.484 | 0.638 | 0.672 | 0.516
HOP-62 | 0.709 | 0.693 | 0.88 | 1.38 | 1.03 | 1.07 | 0.736 | 0.689 | 0.653 | 1.02 | 0.739 | 1.02 | 0.454 | 0.453 | 0.465 | 0.803 | 0.643 | 0.604
NCI-H1666 | 0.492 | 0.419 | 0.402 | 0.951 | 1.15 | 1.1 | 0.577 | 0.559 | 0.548 | 0.792 | 0.649 | 0.705 | 0.649 | 0.647 | 0.693 | 0.996 | 1.01 | 0.97
SW 900 | – | – | – | – | – | – | 0.659 | 0.779 | 0.575 | – | – | – | 0.551 | 0.603 | 0.514 | 0.57 | 0.603 | 0.485
PC-3 [JPC-3] | 0.743 | 0.786 | 0.687 | 1.05 | 1.02 | 1.04 | 0.491 | 0.474 | 0.442 | 0.482 | 0.413 | 0.496 | 0.615 | 0.537 | 0.487 | 0.671 | 0.747 | 0.775
NCI-H661 | 0.424 | 0.487 | 0.38 | 0.647 | 0.787 | 0.515 | 0.288 | 0.281 | 0.313 | 0.483 | 0.449 | 0.42 | 0.437 | 0.398 | 0.417 | 0.792 | 0.751 | 0.75
NCI-H2085 | 0.426 | 0.711 | 0.484 | 0.923 | 1.13 | 0.916 | 0.878 | 0.786 | 0.712 | 0.809 | 0.83 | 0.734 | 0.485 | 0.474 | 0.463 | 0.854 | 0.832 | 0.792
NCI-H2126 | 0.48 | 0.507 | 0.457 | 0.791 | 0.793 | 0.765 | 0.557 | 0.535 | 0.542 | 0.792 | 0.788 | 0.779 | 0.376 | 0.388 | 0.379 | 0.797 | 0.859 | 0.873
NCI-H460 | 0.397 | 0.448 | 0.317 | 0.432 | 0.602 | 0.469 | 0.546 | 0.542 | 0.489 | 1.1 | 1.11 | 0.697 | 0.133 | 0.187 | 0.152 | 0.713 | 0.877 | 0.596
NCI-H596 | 0.378 | 0.375 | 0.446 | 0.544 | 0.517 | 0.431 | 0.707 | 0.734 | 0.899 | 1.05 | 1.08 | 1.01 | – | – | – | 0.604 | 0.624 | 0.689
LK-2 | 0.495 | 0.537 | 0.489 | 0.895 | 1.06 | 1.01 | 0.447 | 0.691 | 0.4 | 0.931 | 1.06 | 0.915 | 0.564 | 1.01 | 0.565 | 0.286 | 0.529 | 0.283
UMC-11 | 0.859 | 0.865 | 0.819 | 0.945 | 1.15 | 0.99 | 0.334 | 0.327 | 0.326 | 1 | 1.1 | 1.06 | 0.342 | 0.309 | 0.335 | 0.334 | 0.315 | 0.354
